Reference: patent US7470678B2, “Diphenylazetidinone derivatives for treating disorders of the lipid metabolism” (AstraZeneca AB, priority 2002, dated 2008)

Columns and labels:
[1] = Absorption in a Caco-2 cells model; assay type: in vitro ADME; conditions: human, read-out: Apparent partition coefficient, Papp
Procedure: (§1) The absorption of the compounds of formula (I) was tested in a Caco-2 cells model (Gastroenterology 1989, 96, 736).

Caco-2 cells = experiment: Absorption in a Caco-2 cells model; assay type: in vitro ADME
Procedure: as §1

| Papp [1] [×10⁻⁶ cm/s] | Apparent partition coefficient; Papp [cm/s] (Caco-2 cells) | absorption compared with ezetimibe (Caco-2 cells; compared with ezetimibe) | Structure (SMILES) |
| --- | --- | --- | --- |
| 21 | – | – | O=C1[C@H](CC[C@H](O)c2ccc(F)cc2)[C@@H](c2ccc(O)cc2)N1c1ccc(F)cc1 [Ezetimibe, reference compound] |
| – | 0.24 × 10^−06 cm/s | much lower absorption | O=C(O)CNC(=O)COc1ccc(C2C(SCC(O)c3ccc(F)cc3)C(=O)N2c2ccccc2)cc1 [Example 24, 3-(R)-4-(R)-1-(Phenyl)-3-[2-(4-fluorophenyl)-2-hydroxyethylsulphany[-4-{4-[N-(carboxymethyl)carbamoylmethoxy]phenyl}azetidin-2-one] |
